US20190175785A1, “SILK FIBROIN SYSTEMS FOR ANTIBIOTIC DELIVERY” (Trustees of Tufts College, priority 2009, published 2019)
Converted amounts (≈) assume the structure as drawn. Like-named read-outs stand apart in the source and are kept apart here.

Columns and labels:
E. coli ATCC 25922 = conditions: E. coli ATCC 25922, NCCLS (2000); cited from earlier work
S. aureus ATCC 25923 = conditions: S. aureus ATCC 25923, NCCLS (2000); cited from earlier work
[1] = Long-term stability study, residual activity of stored penicillin; assay type: physicochemical; conditions: stored at 25° C. and 37° C.
Protocol: To determine if incorporation into silk films would have a similar stabilizing effect to that observed for enzymes, a long-term stability study was carried out comparing the residual activity of penicillin stored in 8% (w/v) silk films or in solution at 4° C. (refrigeration), 25° C. (room temperature) and 37° C. (body temperature).
Stability was also characterized for dry penicillin powder stored at 4° C., 25° C., and 37° C. Comparison of the stability of penicillin stored in silk films, in solution and in dry powder format over 60 days is shown in FIG. 14.

[2] = cited from earlier work

Compound	MIC (E. coli ATCC 25922)	MIC (S. aureus ATCC 25923)	stability of penicillin in solution [1]	time of breakdown in solution ([2]; 37° C.)	time of breakdown in solution ([2]; room temperature (25° C.))
Cc1nnc(SCC2=C(C(=O)O)N3C(=O)[C@@H](NC(=O)Cn4cnnn4)[C@H]3SC2)s1 [cefazolin]	1.0 µg/mL (≈ 2.2 µM)	0.25 µg/mL (≈ 0.55 µM)			
gentamicin	0.5 µg/mL	0.25 µg/mL			
penicillin			rapidly declines	≤ 24 h	within weeks
